For data set [1], the system named is pancreatic cancer cell line Colo 357. In words: Cytotoxicity in conventional 2D cultures, Cytotox green, Incucyte live cell imaging. Type of data set: cell-based. As to conditions: 24 hours of treatment, FIG. 1. Here is the method:
FIG. 1. Cytotoxicity of the indicated compounds. Cells plated on 96-well plates were incubated in the presence of 50 μM of the indicated compounds and fluorescence of the dead-cell marker Cytotox green was monitored over time. In the Figure, fluorescence values after 24 h are reported normalized to the value obtained in the presence of DMSO. […] The symbols indicate biological replicates (with three technical replicates each).
(§1) To test the activity of the compounds on biological systems, we chose the pancreatic cancer cell line Colo 357, which expresses Kv1.3 and is sensitive to cell-permeant Kv1.3 inhibitors (Zaccagnino et al., Oncotarget 8, 38276-38293, 2017). Growth, cell viability and apoptosis were all determined by high content imaging in a Incucyte (Sartorius) live cell imaging device. Images were taken every hour for several days after addition of the compounds dissolved in DMSO (time 0) and the corresponding indicators, CytotoxGreen or CytotoxRed for cytotoxicity and the green Caspase 3/7 activity reporter for apoptosis.
The first screening for cytotoxicity was performed on conventional 2D cultures (FIG. 1).

Data set [2] shares this test system. The data set is described as follows: Apoptosis in 2D culture, caspase 3/7 activity reporter. As to conditions: 24 h incubation, FIG. 2; for Apoptosis induction (caspases 3/7 activation): already at 5 μM. The data set is classed as cell-based, human. Here is the method:
FIG. 2. Levels of apoptosis observed in the presence of the indicated compounds after 24 hours incubation. Apoptosis was measured as activation of the executor caspases 3/7, using a fluorescent indicator. The values were normalized against the apoptosis level observed in the presence of the solvent (DMSO). The symbols indicate biological replicates (with three technical replicates each).
as §1
The toxic effect of both compounds was induced through apoptosis, as expected from mitoKv1.3 inhibitors Urbani, A., et al., Front Cell Dev Biol 8, 620081, 2021). FIG. 2 represents apoptosis induction after 24 h incubation in the presence of compound 2 and 8 at the indicated concentrations.

Data set [3] relates to Colo 357 tumor spheroids. In words: Cytotoxicity on tumor spheroids (3-D cultures), Cytotox green. Type of data set: cell-based, human. As to conditions: concentrations as low as 5 μM, 48 h treatment, FIG. 3. Here is the method:
FIG. 3. Cytotoxicity of the indicated compounds on tumor spheroids. Fluorescence of the dead-cell marker Cytotox green was monitored over time. In the Figure, fluorescence values after 48 h in the presence of the indicated concentration of the compound are reported normalized to the value obtained in the presence of DMSO. The symbols indicate biological replicates (with three technical replicates each).
as §1
To obtain information on the effect of the compounds in a model more similar to the situation in vivo, the effects of 2 and 8 were also studied in tumor spheroids. […] Cytotoxicity was determined as in the conventional 2D cultures but after 48 h treatment instead of 24 h, because the effects needed longer time to develop.

For data set [4], the system named is Colo 357 tumor spheroids. The data set is described as follows: Apoptosis in tumor spheroids (3D culture), caspase 3/7 reporter. The data set is classed as cell-based, human. As to conditions: 25 μM, FIG. 6. Here is the method: FIG. 4. Levels of apoptosis observed in the presence of the indicated compounds during 48 h of treatment. Images were acquired every hour. Apoptosis was measured as activation of the executor caspases 3/7, using a fluorescent indicator. Mean±SEM, three replicates.
FIG. 5. Levels of apoptosis observed in the presence of the indicated compounds over time at two different concentrations (the curves for control and 5 μM are the same as in FIG. 4). Apoptosis was measured as activation of the executor caspases 3/7, using a fluorescent indicator. The open symbols in orange represent 5 μM, solid symbols indicate 25 μM.
FIG. 6. Comparison of the time course of the induction of apoptosis (orange) and of cell death (blue) in the presence of 25 μM compound 8. […]
To test the activity of the compounds on biological systems, we chose the pancreatic cancer cell line Colo 357, which expresses Kv1.3 and is sensitive to cell-permeant Kv1.3 inhibitors (Zaccagnino et al., Oncotarget 8, 38276-38293, 2017). Growth, cell viability and apoptosis were all determined by high content imaging in a Incucyte (Sartorius) live cell imaging device. […]
Cell death in 3D culture was also attributable to induction of apoptosis. […] The fluorescence of the caspase 3/7 reporter was detectable soon after addition of the treatment and was markedly more intense than the values measured in the control treatment (DMSO).

For another data set, the system named is KV1.3. As to conditions: cited from earlier work.
The next data set deals with KV1.5 (Homo sapiens, UniProt P22460). Particulars: cited from earlier work.
The test system of data set [5] is human SAOS2, mouse B16F10 melanoma, and human B-CLL. Particulars: cited from earlier work.
Data set [6] deals with HEK293 and K562 cells, and T and B cells from healthy subjects. Particulars: cited from earlier work.
Data set [7] deals with orthotopic melanoma B16F10. Particulars: cited from earlier work; for B16F10 tumor volume: orthotopic mouse B16F10 melanoma model.
The next data set has as its system cancer cells. As to conditions: in vitro and in vivo studies; cited from earlier work.
In data set [8] the test system is Jurkat leukemia T cells, mouse melanoma B16F10 cells, human PDAC cells (Bx-PC3, PANC-1, As-PC1, CAPAN-1). Particulars: B16F10, Bx-PC3, PANC-1, As-PC1, CAPAN-1 cells; cited from earlier work.
Data set [9] deals with human pancreatic Colo357 tumors. As to conditions: mice; cited from earlier work.
For data set [10] the following is noted: cited from earlier work.
For data set [11], the system named is KV1.1, KV1.2, KV1.5 and KV3.1. Particulars: cited from earlier work.
The test system of data set [12] is pancreatic ductal adenocarcinoma (PDAC) cells. As to conditions: cited from earlier work.
The subject of data set [13] is orthotopic PDAC xenograft. Particulars: SCID beige mouse; cited from earlier work.

Structures are written as SMILES.

Take `COc1ccccc1C(=O)NC[C@]1(c2ccsc2)CC[C@H](OC(=O)NCCC[P+](c2ccccc2)(c2ccccc2)c2ccccc2)CC1.[I-]` [Example 2, (3-(((((1S,4S)-4-((2-Methoxybenzamido)methyl)-4-(thiophen-3-yl)cyclohexyl)oxy)carbonyl)amino)propyl)triphenylphosphonium iodide]: the “Cell death (cytotoxicity screening)” value in data set [1] is “most intense effect”. Besides, in data set [2], the “Dose dependence of the intensity of apoptosis induction” value is reported as “increased in a dose-dependent manner” and the “Apoptosis induction (caspases 3/7 activation)” value is reported as “strong increase in apoptotic cells”. In the data set with Colo 357 tumor spheroids [3], the “Cytotoxicity in tumor spheroids” value is “significant levels of cytotoxicity”.

Consider `COc1ccccc1C(=O)NCC1(c2ccsc2)CCC(OC(=O)NCCCC[P+](c2ccccc2)(c2ccccc2)c2ccccc2)CC1.[I-]` [Example 8, (4-(((((1S,4S)-4-((2-Methoxybenzamido)methyl)-4-(thiophen-3-yl)cyclohexyl)oxy)carbonyl)amino)butyl)triphenylphosphonium iodide], for which, in data set [1], the “Cell death (cytotoxicity screening)” value is recorded as “most intense effect”. In [2], the “Dose dependence of the intensity of apoptosis induction” value is listed as “increased in a dose-dependent manner” and the “Apoptosis induction (caspases 3/7 activation)” value is “strong increase in apoptotic cells”. In addition, the “Cytotoxicity in tumor spheroids” value with Colo 357 tumor spheroids [3] is listed as “significant levels of cytotoxicity”. In addition, the “Time course of apoptosis compared with cytotoxicity in spheroids” value in the data set with Colo 357 tumor spheroids [4] was “initiation of the decline in apoptosis signal corresponds to the start of the increase in the number of dead cells”.

For the compound `O=c1ccc2c(OCCCCOc3ccccc3)c3ccoc3cc2o1` [PAP-1, 4-(4-phenoxybutoxy)-7H-furo[3,2-g]chromen-7-one], the IC50 with KV1.3 was […]. Moreover, the “Selectivity over Kv1.5” value at KV1.5 is listed as […]. Besides, in [5], the “Apoptosis in cancer cells” value is “induced apoptosis”. Further, the “Effects on healthy cells” value in data set [6] is “did not show similar effects”.

As to `O=c1ccc2c(OCCCCOc3ccc(CCC[P+](c4ccccc4)(c4ccccc4)c4ccccc4)cc3)c3ccoc3cc2o1.[I-]` [PAPTP, (3-(4-(4-((7-oxo-7H-furo[3,2-g]chromen-4-yl)oxy)butoxy)phenyl)propyl)triphenylphosphonium iodide], in [7] (co-applied with cisplatin), the Tumor volume reduction result was “more than 90%”. Further, in [7], the B16F10 tumor volume result is on record as “greatly reduce”. Further, in the data set on cancer cells, the “Effectiveness compared with the parent PAP-1” value is “much more effective than the parent PAP-1”. In data set [8], the Cell death result is “induced cell death”. Also, the Colo357 tumors result in data set [9] is “significant reductions”.

On to `O=C(NCCC[P+](c1ccccc1)(c1ccccc1)c1ccccc1)Oc1ccc(OCCCCOc2c3ccoc3cc3oc(=O)ccc23)cc1.[I-]` [PCARBTP, (3-(((4-(4-((7-oxo-7H-furo[3,2-g]chromen-4-yl)oxy)butoxy)phenoxy)carbonyl)amino)propyl)triphenylphosphonium iodide], for which the B16F10 tumor volume result in data set [7] was “greatly reduce”. Also, in data set [10] (Dulbecco's modified Eagle medium), the “Hydrolysis in culture medium” value was “slow hydrolysis”. Further, in [10] (physiological conditions, mouse blood), the “Hydrolysis in mouse blood” value is “hydrolyzed to PAPOH”. For the same compound, the “Effectiveness compared with the parent PAP-1” value with cancer cells is “much more effective than the parent PAP-1”. Besides, the Cell death entry in data set [8] was “induced cell death”. The Colo357 tumors entry in [9] is “significant reductions”.

Consider `O=C(OCCC[P+](c1ccccc1)(c1ccccc1)c1ccccc1)Oc1ccc(OCCCCOc2c3ccoc3cc3oc(=O)ccc23)cc1.[I-]` [PCTP, (3-(((4-(4-((7-oxo-7H-furo[3,2-g]chromen-4-yl)oxy)butoxy)phenoxy)carbonyl)oxy)propyl)triphenylphosphonium iodide], for which the “Effectiveness compared with the parent PAP-1” value in the data set on cancer cells is “much more effective than the parent PAP-1”. Further, the Cell death result in [8] is reported as “induced cell death”.

With `O=c1ccc2c(OCCCCc3ccccc3)c3ccoc3cc2o1` [Psora-4, 4-(4-Phenylbutoxy)-7H-furo[3,2-g][1]benzopyran-7-one], in the data set with KV1.3, the IC50 was […]. Further, in data set [5], the “Apoptosis in cancer cells” value is listed as “induced apoptosis”. For the same compound, in data set [6], the “Effects on healthy cells” value is “did not show similar effects”.

With `CC(C)N=c1cc2n(-c3ccc(Cl)cc3)c3ccccc3nc-2cc1Nc1ccc(Cl)cc1` [clofazimine, N,5-bis(4-chlorophenyl)-3-propan-2-yliminophenazin-2-amine], the IC50 with KV1.3 is 300 nM. For the same compound, the “Selectivity over KV1.1, KV1.2, KV1.5 and KV3.1” value in data set [11] is “tenfold”. Moreover, the “Apoptosis in cancer cells” value in data set [5] is “induced apoptosis”. The “Effects on healthy cells” value in [6] is given as “did not show similar effects”. The “Apoptosis in PDAC cells” value in data set [12] was “induced apoptosis”. The Primary tumor weight entry in [13] is reported as “significantly reduced”. Moreover, the “Reduction of tumor size” value in data set [7] (orthotopic melanoma B16F10 line, mouse) is 90%.

Source of the values: patent US20250289837A1, “MITOCHONDRIOTROPIC HETEROARYL BENZAMIDE POTASSIUM CHANNEL KV1.3 INHIBITORS” (UNIVERZA V LJUBLJANI, priority 2022, published 2025).
